From PubChem BioAssay AID2060885 (Molecular Pharmacology Branch, DTP, NCI, 2025)

Test system: NCI-H23 complex spheroids with HUVEC/MSC, viability
Assay: Anticancer human tumor NCI-H23 cell line growth inhibition [RAS];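 further: spheroids exposed to compound for 7 days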;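 on viability, T/C: 100% = DMSO vehicle control viability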
Settings: for IC50: curve of first compound; for viability, T/C: stronger effect = lower value
Outline: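 Multi-cell-type spheroids: tumor cells plus HUVEC endothelial cells and mesenchymal stem cells. RAS-pathway inhibitors were combined with targeted agents, each dosed in half-log steps down from clinical Cmax, or from 10 microM when Cmax was unknown.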

[1] = second compound 0.00316 µM, first compound 0.0316 µM
[2] = second compound 0.00316 µM, first compound 0.1 µM
[3] = second compound 0.01 µM, first compound 0.0316 µM
[4] = second compound 0.01 µM, first compound 0.1 µM
[5] = second compound 0.0316 µM, first compound 0.0316 µM
[6] = second compound 0.0316 µM, first compound 0.1 µM
[7] = second compound 0.1 µM, first compound 0.0316 µM
[8] = second compound 0.1 µM, first compound 0.1 µM
[9] = second compound 0.316 µM, first compound 0.0316 µM
[10] = second compound 0.316 µM, first compound 0.1 µM
[11] = second compound 1 µM, first compound 0.0316 µM
[12] = second compound 1 µM, first compound 0.1 µM

CC(C)NCC(C(=O)N1CCN(c2ncnc3c2C(C)CC3O)CC1)c1ccc(Cl)cc1 (centres undefined) + C=CC(=O)N1CCN(c2nc(OCC3CCCN3C)nc3c(F)c(-c4nc(N)cc(C)c4C(F)(F)F)c(Cl)cc23)C(C)C1
IC50 (second compound 0.00316 µM): 548 nM | IC50 (second compound 0.01 µM): 85.9 nM | IC50 (second compound 0.0316 µM): < 31.6 nM | IC50 (second compound 0.1 µM): < 31.6 nM | IC50 (second compound 0.316 µM): < 31.6 nM | IC50 (second compound 1 µM): < 31.6 nM | viability, T/C [1]: 57.1% | viability, T/C [2]: 67.7% | viability, T/C (second compound 0.00316 µM, first compound 0.316 µM): 51.7% | viability, T/C (second compound 0.00316 µM, first compound 1 µM): 45.4% | viability, T/C (second compound 0.00316 µM, first compound 3.16 µM): 33.4% | viability, T/C (second compound 0.00316 µM, first compound 10 µM): 29.2% | viability, T/C [3]: 52.5% | viability, T/C [4]: 54.5% | viability, T/C (second compound 0.01 µM, first compound 0.316 µM): 39.5% | viability, T/C (second compound 0.01 µM, first compound 1 µM): 37% | viability, T/C (second compound 0.01 µM, first compound 3.16 µM): 28.4% | viability, T/C (second compound 0.01 µM, first compound 10 µM): 20% | viability, T/C [5]: 39.1% | viability, T/C [6]: 48.1% | viability, T/C (second compound 0.0316 µM, first compound 0.316 µM): 31.2% | viability, T/C (second compound 0.0316 µM, first compound 1 µM): 30.2% | viability, T/C (second compound 0.0316 µM, first compound 3.16 µM): 24.3% | viability, T/C (second compound 0.0316 µM, first compound 10 µM): 16.9% | viability, T/C [7]: 39.3% | viability, T/C [8]: 39.4% | viability, T/C (second compound 0.1 µM, first compound 0.316 µM): 29.9% | viability, T/C (second compound 0.1 µM, first compound 1 µM): 25.8% | viability, T/C (second compound 0.1 µM, first compound 3.16 µM): 20.2% | viability, T/C (second compound 0.1 µM, first compound 10 µM): 18.8% | viability, T/C [9]: 37% | viability, T/C [10]: 34.2% | viability, T/C (second compound 0.316 µM, first compound 0.316 µM): 28.9% | viability, T/C (second compound 0.316 µM, first compound 1 µM): 23.1% | viability, T/C (second compound 0.316 µM, first compound 3.16 µM): 21.3% | viability, T/C (second compound 0.316 µM, first compound 10 µM): 17.9% | viability, T/C [11]: 34.9% | viability, T/C [12]: 37.1% | viability, T/C (second compound 1 µM, first compound 0.316 µM): 34.2% | viability, T/C (second compound 1 µM, first compound 1 µM): 26.1% | viability, T/C (second compound 1 µM, first compound 3.16 µM): 23.3% | viability, T/C (second compound 1 µM, first compound 10 µM): 16.6%

CC(C)n1nc(-c2ccc3oc(N)nc3c2)c2c(N)ncnc21 + C=CC(=O)N1CCN(c2nc(OCC3CCCN3C)nc3c(F)c(-c4nc(N)cc(C)c4C(F)(F)F)c(Cl)cc23)C(C)C1
IC50 (second compound 0.00316 µM): 3.25 nM | IC50 (second compound 0.01 µM): 0.445 nM | IC50 (second compound 0.0316 µM): < 0.316 nM | IC50 (second compound 0.1 µM): < 0.316 nM | IC50 (second compound 0.316 µM): < 0.316 nM | IC50 (second compound 1 µM): < 0.316 nM | viability, T/C (second compound 0.00316 µM, first compound 0.000316 µM): 58.9% | viability, T/C (second compound 0.00316 µM, first compound 0.001 µM): 68.7% | viability, T/C (second compound 0.00316 µM, first compound 0.00316 µM): 45.9% | viability, T/C (second compound 0.00316 µM, first compound 0.01 µM): 35.2% | viability, T/C [1]: 27.3% | viability, T/C [2]: 17.7% | viability, T/C (second compound 0.01 µM, first compound 0.000316 µM): 52.1% | viability, T/C (second compound 0.01 µM, first compound 0.001 µM): 44.1% | viability, T/C (second compound 0.01 µM, first compound 0.00316 µM): 35.5% | viability, T/C (second compound 0.01 µM, first compound 0.01 µM): 25.7% | viability, T/C [3]: 21.2% | viability, T/C [4]: 16.9% | viability, T/C (second compound 0.0316 µM, first compound 0.000316 µM): 39.7% | viability, T/C (second compound 0.0316 µM, first compound 0.001 µM): 43.7% | viability, T/C (second compound 0.0316 µM, first compound 0.00316 µM): 28.2% | viability, T/C (second compound 0.0316 µM, first compound 0.01 µM): 26.2% | viability, T/C [5]: 17.3% | viability, T/C [6]: 16.9% | viability, T/C (second compound 0.1 µM, first compound 0.000316 µM): 37.8% | viability, T/C (second compound 0.1 µM, first compound 0.001 µM): 32.5% | viability, T/C (second compound 0.1 µM, first compound 0.00316 µM): 26.3% | viability, T/C (second compound 0.1 µM, first compound 0.01 µM): 23.8% | viability, T/C [7]: 17.9% | viability, T/C [8]: 14.2% | viability, T/C (second compound 0.316 µM, first compound 0.000316 µM): 30.6% | viability, T/C (second compound 0.316 µM, first compound 0.001 µM): 38.3% | viability, T/C (second compound 0.316 µM, first compound 0.00316 µM): 29.5% | viability, T/C (second compound 0.316 µM, first compound 0.01 µM): 22.3% | viability, T/C [9]: 17.1% | viability, T/C [10]: 15.8% | viability, T/C (second compound 1 µM, first compound 0.000316 µM): 27.9% | viability, T/C (second compound 1 µM, first compound 0.001 µM): 33.8% | viability, T/C (second compound 1 µM, first compound 0.00316 µM): 32.2% | viability, T/C (second compound 1 µM, first compound 0.01 µM): 25.9% | viability, T/C [11]: 22.5% | viability, T/C [12]: 16.2%
